Data from patent publication US20230181463A1, “OLEOGEL AND OLEOPASTE COMPOSITIONS AND USES THEREOF” (Massachusetts Institute of Technology, priority 2020, published 2023).

How the values were obtained:
[1] = Drug release from AZT oleogels in lipolysis medium (simulated intestinal fluid); type: in vitro ADME; conditions: in vitro release over 90 minutes, trapezoidal rule, triplicates
Procedure: Extensive in vitro release studies were conducted to understand the impact of oil, solubilizer and gelling agent on the release of AZT in simulated intestinal fluid (SIF).
Preparation of lipolysis buffer: To prepare lipolysis buffer, tris-maleate (0.474 g), calcium chloride dihydrate (0.275 g), sodium chloride (8.766 g) were weighed and distilled water was added to bring the volume to 1 L. The pH of the buffer was adjusted to pH 6.5 using 5N sodium hydroxide.
Preparation of lipolysis media: L—a phosphotidylcholine (0.576 g/l) and sodium taurodeoxycholate hydrate (1.619 g/l) were added to the lipolysis buffer. Next, the solution was stirred overnight to dissolve all ingredients.
Preparation of pancreatin solution: Three grams of pancreatin was added to 15 ml of lipolysis buffer and stirred on a magnetic stir plate for 10 minutes. The mixture was centrifuged at 28000g, at 5° C. for 10 minutes. The supernant was collected and the pH of the supernant was adjusted to pH 6.5 using 5N sodium hydroxide solution.
Preparation of negative control: To avoid the technical difficulty in material weighing, 40 mg of AZT powder was dispersed into 10 ml of methanol. It was sonicated for 1 minute to get a clear solution. One milliliter was taken into 3 separate Falcon tube and remained still to evaporate the solvent. […]

[2] = In silico pharmacokinetic modelling of AZT oleogels; conditions: first order fit to in vitro release data
Procedure: In vivo pharmacokinetics of the various formulations were calculated using the data obtained from in vitro release studies. To achieve this, pharmacokinetic modeling studies were conducted in two steps. In the first step, first order equations to in vitro release data were used to estimate rate constant for drug release (krel) and the extent of drug release (Agel, t=0). The rate constant of drug release was considered a measure of the speed of drug release. The extent of drug release or Agel, t=0 was a measure of the total amount of drug that could be released from the formulation at 90 min, which likely depended on the partition coefficient for AZT between the oily formulation and aqueous release medium. […] In the second step, one-compartment oral drug administration model was constructed. Using krel and Agel, t=0 as input, pharmacokinetic parameters such as maximum concentration (Cmax), time to maximum concentration (Tmax) and serum drug exposure or area under the curve (AUCfit) were determined. […]

Compound: CC[C@H]1OC(=O)[C@H](C)[C@@H](O[C@H]2C[C@@](C)(OC)[C@@H](O)[C@H](C)O2)[C@H](C)[C@@H](O[C@@H]2O[C@H](C)C[C@H](N(C)C)[C@H]2O)[C@](C)(O)C[C@@H](C)CN(C)[C@H](C)[C@@H](O)[C@]1(C)O [Control, azithromycin]
- Average AUC [1]: 127.23 µg·h/mL
- average krel [2]: 5.28 h⁻¹
- Average Agel, t=0 ([2]; 4.00 mg AZT put in): 3.98 mg
